Test results as given in the SangsterLogP compilation.

Compound	logP
Cc1ccc(N(C)C)cc1	2.81
Cc1ccc2cc(C)c(C)cc2c1	4.73
CN(C)C(=O)Nc1ccccc1	0.98
O=C1CCCCCN1	-0.19
COc1cccc([N+](=O)[O-])c1	2.16
Cc1cccc2c1c([N+](=O)[O-])cc[n+]2[O-]	1.36
c1ccc2occc2c1	2.67
CCN(CC)c1ccccc1	3.31
CC=CC	2.33
O=c1[nH]c2ccccc2n1CCCN1CCC(n2c(=O)[nH]c3cc(Cl)ccc32)CC1	3.9
CC1(C)S[C@@H]2[C@H](NC(=O)[C@H](N)c3ccccc3)C(=O)N2[C@H]1C(=O)O	1.35
COC(=O)c1cccnc1	0.83
Oc1ccc(I)cc1	2.91
CCCCCn1nnc2ccccc21	3.22
CC(=O)S[C@@H]1CC2=CC(=O)CC[C@]2(C)[C@H]2CC[C@@]3(C)[C@@H](CC[C@@]34CCC(=O)O4)[C@H]12	2.78
O=[N+]([O-])c1cc[n+]([O-])c2ccccc12	1.09
Cc1cccc2c([N+](=O)[O-])cc[n+]([O-])c12	1.59
CC(C)C(=O)C(C#N)=NNc1ccc(Cl)cc1C(F)(F)F	5.67
Nc1nc2c(ncn2COCCO)c(=O)[nH]1	-1.56
CBr	1.19
Oc1c(Br)cc(Br)cc1Br	4.13
OCC(F)(F)F	0.41
NCCc1c[nH]c2ccccc12	1.55

Compound	logP
Nc1cc[nH]c(=O)n1	-1.73
O=CO	-0.54
CCOC(=O)C=Cc1ccccc1	2.99
Nc1ncnc2c1ncn2[C@H]1CC[C@@H](CO)O1	-0.25
C[C@]12CCC(=O)C=C1CC[C@@H]1[C@@H]2C(=O)C[C@@]2(C)[C@H]1CC[C@]2(O)C(=O)CO	1.47
CSc1nncc(=O)n1N	0.38
COc1cccc(/C=C/[N+](=O)[O-])c1	2.37
CNC(=O)Oc1cccc(C(C)=O)c1	0.9
C=CCOc1ccccc1OCC(O)CNC(C)C (centres undefined)	2.1
FC(F)(Cl)C(F)(F)Cl	2.82
CC(=O)C=Cc1ccccc1	2.07
O=C1c2ccccc2C(=O)C1c1ccccc1	2.9
CCCCCC(=O)O	1.92
CCCC[N+](=O)[O-]	1.47
C[C@H](CS)C(=O)N1CCC[C@H]1C(=O)O	0.34
OCC=Cc1ccccc1	1.95
CC(N)C(O)c1ccccc1 (centres undefined)	0.67
O=C(O)COc1ccccc1Cl	1.86
O=c1cccccc1O	0.53
CC(CN1CCOCC1)C(C(=O)N1CCCC1)(c1ccccc1)c1ccccc1 (centres undefined)	3.61
NNC(=O)c1ccccc1	0.19
CCC(C)=O	0.29
N#C/C(=C\c1ccccc1)C(N)=O	1.56

Compound	logP
COc1ccc(N)cc1	0.95
CCCCC(C)=O	1.38
NC(N)=S	-1.08
NC(=O)c1ccccc1O	1.28
OCCN1CCN(CC/C=C2\c3ccccc3Sc3ccc(Cl)cc32)CC1	4.18
N[C@@H](Cc1c[nH]c2ccccc12)C(=O)O	-1.06
CN(Cc1ccccc1)c1ccccc1	4.22
CCCCC(CC)CN (centres undefined)	2.82
CC(=O)Nc1ccccc1C(=O)O	1.88
Cc1ccc(CO)cc1	1.58
CCCCNCCCC	2.83
CCCNC(C)CC (centres undefined)	1.91
Cc1ccc2c([N+](=O)[O-])cc[n+]([O-])c2c1	1.42
O=C(O)c1ncccc1O	-1.27
O=C(O)CONC(=O)Nc1ccccc1	0.26
c1ccc(Nc2ccccc2)cc1	3.5
CS(=O)(=O)c1ccccc1	0.5
c1ccc(-c2ccncc2)cc1	2.59
Cc1ccc([N+](=O)[O-])cc1	2.37
COP(=O)(OC)OC	-0.65
NC(N)=O	-2.11
Oc1ccc2ccccc2c1	2.7
OCC(O)CO	-1.76

Compound	logP
COc1ccc(CC(C)N)c(OC)c1 (centres undefined)	1.75
O=NN1CCOCC1	-0.44
Cc1ccc(C)cc1	3.15
O=C(O)COc1ccccc1I	2.33
O=C1CN=C(c2ccccc2)c2cc([N+](=O)[O-])ccc2N1	2.25
Cc1cccnc1	1.2
Nc1nc(N)c2ncn([C@H]3C[C@H](O)[C@@H](CO)O3)c2n1	-0.52
c1ccc2[nH]ncc2c1	1.77
NS(=O)(=O)c1ccc(O)cc1	0.06
Cc1cnc(NS(=O)(=O)c2ccc(N)cc2)nc1	0.34
CCCn1nnc2ccccc21	2.13
CCCCOc1cc(C(=O)NCCN(CC)CC)c2ccccc2n1	4.4
c1ccc2nccnc2c1	1.32
CC(=O)Nc1ccccc1	1.16
CCCC	2.89
O=C(O)c1ccccc1Oc1ccccc1	3.11
Cn1cnc([N+](=O)[O-])c1Sc1ncnc2nc[nH]c12	0.1
CNC(=O)Oc1ccc(C)c(C)c1	2.09
CCCc1ccc(S(N)(=O)=O)cc1	1.64
O=C(O)C(c1ccccc1)c1ccccc1	3.09
